Reference: the CheMixHub ionic liquid set

Assay: xn = mol fraction of the nth substance listed

CCCC[N+](CCCC)(CCCC)Cc1ccccc1.[Cl-] + NC(=O)CC[C@H](N)C(=O)O + O
electrical conductivity [S/m], 100 kPa, frequency 0.001 MHz
Conditions | 293.15 K | 298.15 K | 303.15 K | 308.15 K | 313.15 K
x2 = 0.0001802, x1 = 1.802e-05 | 0.0331 | 0.0352 | 0.0382 | 0.041 | 0.0452
x2 = 0.0001803, x1 = 5.405e-05 | 0.0419 | 0.0441 | 0.0463 | 0.0496 | 0.0536
x2 = 0.0001804, x1 = 9.008e-05 | 0.0513 | 0.0542 | 0.0582 | 0.0612 | 0.0654
x2 = 0.0004504, x1 = 1.801e-05 | 0.0408 | 0.0453 | 0.0486 | 0.0523 | 0.0553
x2 = 0.0004507, x1 = 5.403e-05 | 0.0492 | 0.0543 | 0.057 | 0.0597 | 0.0642
x2 = 0.000451, x1 = 9.005e-05 | 0.0592 | 0.0641 | 0.067 | 0.069 | 0.0728
x2 = 0.0007205, x1 = 1.801e-05 | 0.0479 | 0.0557 | 0.0582 | 0.0614 | 0.0662
x2 = 0.0007209, x1 = 5.402e-05 | 0.0619 | 0.0683 | 0.0702 | 0.0724 | 0.0764
x2 = 0.0007213, x1 = 9.003e-05 | 0.0692 | 0.0768 | 0.0774 | 0.0796 | 0.0867
x2 = 0.0009904, x1 = 1.8e-05 | 0.0551 | 0.064 | 0.0692 | 0.071 | 0.0769
x2 = 0.000991, x1 = 5.4e-05 | 0.0713 | 0.0784 | 0.0819 | 0.0821 | 0.0806
x2 = 0.0009916, x1 = 9e-05 | 0.0768 | 0.0871 | 0.0876 | 0.0906 | 0.1
x2 = 0.00126, x1 = 1.8e-05 | 0.0646 | 0.0756 | 0.079 | 0.0819 | 0.0865
x2 = 0.001261, x1 = 5.399e-05 | 0.0809 | 0.0902 | 0.0923 | 0.0943 | 0.103
x2 = 0.001262, x1 = 8.998e-05 | 0.0911 | 0.098 | 0.0989 | 0.101 | 0.113
x2 = 0.00153, x1 = 1.799e-05 | 0.0733 | 0.0847 | 0.0896 | 0.0903 | 0.0994
x2 = 0.001531, x1 = 5.397e-05 | 0.0868 | 0.0975 | 0.103 | 0.105 | 0.116
x2 = 0.001532, x1 = 8.995e-05 | 0.099 | 0.106 | 0.108 | 0.109 | 0.119

viscosity [mPa·s], 100 kPa
Conditions | 293.15 K | 298.15 K | 303.15 K | 308.15 K | 313.15 K
x2 = 0.0001802, x1 = 1.802e-05 | 0.961 | 0.921 | 0.884 | – | –
x2 = 0.0001803, x1 = 5.405e-05 | 0.969 | 0.929 | 0.888 | – | –
x2 = 0.0001804, x1 = 9.008e-05 | 0.98 | 0.939 | 0.9 | – | –
x2 = 0.0004504, x1 = 1.801e-05 | 0.969 | 0.93 | 0.893 | 0.858 | 0.803
x2 = 0.0004507, x1 = 5.403e-05 | 0.978 | 0.938 | 0.896 | 0.863 | 0.808
x2 = 0.000451, x1 = 9.005e-05 | 0.99 | 0.949 | 0.909 | 0.869 | 0.817
x2 = 0.0007205, x1 = 1.801e-05 | 0.977 | 0.939 | 0.902 | 0.867 | 0.812
x2 = 0.0007209, x1 = 5.402e-05 | 0.987 | 0.947 | 0.906 | 0.872 | 0.818
x2 = 0.0007213, x1 = 9.003e-05 | 1 | 0.96 | 0.919 | 0.88 | 0.827
x2 = 0.0009904, x1 = 1.8e-05 | 0.985 | 0.948 | 0.912 | 0.877 | 0.823
x2 = 0.000991, x1 = 5.4e-05 | 0.996 | 0.957 | 0.917 | 0.882 | 0.827
x2 = 0.0009916, x1 = 9e-05 | 1.01 | 0.97 | 0.929 | 0.891 | 0.838
x2 = 0.00126, x1 = 1.8e-05 | 0.994 | 0.956 | 0.921 | 0.887 | 0.833
x2 = 0.001261, x1 = 5.399e-05 | 1.005 | 0.967 | 0.926 | 0.894 | 0.838
x2 = 0.001262, x1 = 8.998e-05 | 1.021 | 0.98 | 0.939 | 0.901 | 0.849
x2 = 0.00153, x1 = 1.799e-05 | 1.002 | 0.965 | 0.929 | 0.897 | 0.843
x2 = 0.001531, x1 = 5.397e-05 | 1.014 | 0.977 | 0.936 | 0.904 | 0.849
x2 = 0.001532, x1 = 8.995e-05 | 1.029 | 0.99 | 0.95 | 0.912 | 0.86

CC(=O)[O-].CC[NH2+]CC + CC(C)=O
298.15 K, 101 kPa
Conditions | electrical conductivity [S/m] | viscosity [mPa·s]
x1 = 0.0095 | 0.001 | –
x1 = 0.0238 | 0.033 | –
x1 = 0.0523 | 0.085 | –
x1 = 0.0729 | 0.131 | –
x1 = 0.098 | – | 0.734
x1 = 0.0983 | 0.171 | –
x1 = 0.194 | – | 1.092
x1 = 0.1981 | 0.328 | –
x1 = 0.2979 | 0.427 | –
x1 = 0.299 | – | 2.01
x1 = 0.401 | 0.479 | –
x1 = 0.402 | – | 3.5
x1 = 0.4945 | 0.505 | –
x1 = 0.5 | – | 5.74
x1 = 0.599 | – | 8.92
x1 = 0.6022 | 0.459 | –
x1 = 0.701 | – | 14.91
x1 = 0.7021 | 0.427 | –
x1 = 0.7971 | 0.387 | –
x1 = 0.802 | – | 24.3
x1 = 0.9002 | 0.341 | –
x1 = 0.903 | – | 38.6
x2 = 0.003 | – | 58.7

C[N+](C)(CCO)CCOCCO.[Cl-] + OCCO
101 kPa, x1 = 0.3333
Conditions | viscosity [mPa·s]
283.15 K | 242.4
288.15 K | 177.4
293.15 K | 131.9
298.15 K | 100.9
303.15 K | 78.8
308.15 K | 62.2
313.15 K | 49.8
318.15 K | 40.49
323.15 K | 33.3
328.15 K | 27.72
333.15 K | 23.38
338.15 K | 19.82
343.15 K | 17
348.15 K | 14.73
353.15 K | 12.94
